Data as given in US20060088529A1, “Bispecific monoclonal antibodies to IL-12 and IL-18” (priority 2000, published 2006).

How the values were obtained:
NK-92 cells = test: IFN-γ production in NK-92 cells (ELISA); format: cell-based, human; settings: IL-12 10 pM, 16 to 24 hours
Protocol: (§1) Two assays show the bioactivity of IL-12 and IL-18 alone. NK-92 is a natural killer line derived from a patient with malignant […] lymphoma. KG-1 is a myelomonocytic line derived from a patient with acute myelogenous leukemia. NK-92 and KG-1 cells constitutively express the IL-12 and IL-18 receptors, respectively.
(§2) KG-1 cells were cultured in serum-free medium for 24 hours, and then plated at 1×10^6 cells/ml in 96-well plates. As indicated, IL-18 (50 nM) or DEX (20 nM) were added. NK-92 cells were cultured in the presence of 10 U/ml IL-2, and plated at 2.5×10^4 viable (Trypan Blue negative) cells/ml in 96-well plates. As indicated, IL-12 (10 pM) or DEX (20 nM) were added. The KG-1 and NK-92 cells were incubated for 16 to 24 hours, and the amount of IFN-γ in the culture medium was determined using the Biosource Cytoscreen IFN-γ ELISA kit.

KG-1 cells = test: IFN-γ production in KG-1 cells (ELISA); format: cell-based, human; settings: IL-18 50 nM, 16 to 24 hours
Protocol: as §1, §2

Row | Substance | IFN-γ production (NK-92 cells) | IFN-γ production (KG-1 cells)
1 | Interleukin-12 [IL-12] | induce IFN-γ production | –
2 | Interleukin-18 [IL-18] | – | induce IFN-γ production
